Results as given in PubChem BioAssay AID248 (DTP/NCI, 2004).
Several values for one entry are separate records, joined by “and”; a condition that tells them apart may be missing. Identical values can stand only once. Inconclusive results and toxic doses are left out. Rule as the data show it: active = T/C of 150% or more; inactive = T/C below 125%.

Tested on: L1210 leukemia ip in BDF1 mice, survival T/C
Test: NCI In Vivo Anticancer Drug Screen. Data for tumor model L1210 Leukemia (intraperitoneal) in B6D2F1 (BDF1) mice
Conditions: endpoint: mean survival time, higher = longer survival
In short: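 Mice bearing the transplanted tumor received compound or vehicle. Survival of the treated group was divided by that of the vehicle-treated control group to give the ratio.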

[1] = dose: 200.0 mg/kg/injection, schedule: Q04DX002 (ip), vehicle: Klucel (hydroxypropylcellulose) (HPC)
[2] = dose: 100.0 mg/kg/injection, schedule: Q01DX001 (ip), vehicle: Klucel (hydroxypropylcellulose) (HPC)
[3] = dose: 200.0 mg/kg/injection, schedule: Q01DX001 (ip), vehicle: Klucel (hydroxypropylcellulose) (HPC)
[4] = dose: 400.0 mg/kg/injection, schedule: Q01DX001 (ip), vehicle: Klucel (hydroxypropylcellulose) (HPC)
[5] = dose: 50.0 mg/kg/injection, schedule: Q01DX009 (ip), vehicle: saline with Tween-80
[6] = dose: 100.0 mg/kg/injection, schedule: Q01DX009 (ip), vehicle: saline with Tween-80
[7] = dose: 100.0 mg/kg/injection, schedule: Q04DX002 (ip), vehicle: saline with Tween-80
[8] = dose: 200.0 mg/kg/injection, schedule: Q04DX002 (ip), vehicle: saline with Tween-80
[9] = dose: 200.0 mg/kg/injection, schedule: Q01DX009 (ip), vehicle: saline with Tween-80
[10] = dose: 50.0 mg/kg/injection, schedule: Q01DX009 (ip), vehicle: saline
[11] = dose: 100.0 mg/kg/injection, schedule: Q01DX001 (ip), vehicle: saline
[12] = dose: 200.0 mg/kg/injection, schedule: Q01DX001 (ip), vehicle: saline
[13] = dose: 400.0 mg/kg/injection, schedule: Q01DX001 (ip), vehicle: saline
[14] = dose: 400.0 mg/kg/injection, schedule: Q01DX009 (ip), vehicle: saline with Tween-80

Measured: T/C

Cc1ccc(N2C(=O)C=CC2=O)cc1
inactive: dose: 100.0 mg/kg/injection, schedule: Q04DX003 (ip), vehicle: acetone 97 % of control | dose: 200.0 mg/kg/injection, schedule: Q04DX003 (ip), vehicle: acetone 92 % of control | dose: 400.0 mg/kg/injection, schedule: Q04DX003 (ip), vehicle: acetone 86 % of control

O=C(COc1ccccc1)c1ccccc1
inactive: dose: 12.5 mg/kg/injection, schedule: Q04DX002 (ip), vehicle: Klucel (hydroxypropylcellulose) (HPC) 93 % of control | dose: 25.0 mg/kg/injection, schedule: Q04DX002 (ip), vehicle: Klucel (hydroxypropylcellulose) (HPC) 104 % of control | dose: 50.0 mg/kg/injection, schedule: Q04DX002 (ip), vehicle: Klucel (hydroxypropylcellulose) (HPC) 96 % of control | [1] 95 % of control

CCCC(N)C(=O)O (stereo not drawn)
inactive: [2] 106 % of control | [3] 103 % of control | [4] 95 % of control

CC(=O)CCC(C)N=Cc1ccc(N(C)C)cc1 (stereo not drawn)
inactive: dose: 100.0 mg/kg/injection, schedule: Q04DX003 (ip), vehicle: saline 92 % of control | dose: 200.0 mg/kg/injection, schedule: Q04DX003 (ip), vehicle: saline 91 % of control | dose: 400.0 mg/kg/injection, schedule: Q04DX003 (ip), vehicle: saline 89 % of control

CCC1OCC(C(Cl)CCl)O1 (stereo not drawn)
inactive: dose: 100.0 mg/kg/injection, schedule: Q01DX009 (ip), vehicle: saline sonified 99 % of control

Cn1c(N)c(C=O)c(=O)n(C)c1=O
inactive: dose: 12.5 mg/kg/injection, schedule: Q04DX003 (ip), vehicle: Klucel (hydroxypropylcellulose) (HPC) 95 % of control | dose: 25.0 mg/kg/injection, schedule: Q04DX003 (ip), vehicle: Klucel (hydroxypropylcellulose) (HPC) 105 % of control | dose: 50.0 mg/kg/injection, schedule: Q04DX003 (ip), vehicle: Klucel (hydroxypropylcellulose) (HPC) 96 % of control

N#CCC(=O)NCc1ccco1
inactive: [5] 106 % of control | [6] 103 % of control | [7] 104 % of control | [8] 114 % of control

N#CC(Nc1ncccn1)c1ccccc1 (stereo not drawn)
inactive: [5] 104 % of control | [6] 93 % of control | [9] 104 % of control

COC(=O)Nc1cc2c3c(c1)CCCN3CCC2
inactive: [5] 91 % of control | [6] 96 % of control

CCN=C1C=C/C(=C(/c2ccc(NCC)c(C)c2)c2cc(O)c(S(=O)(=O)O)cc2S(=O)(=O)O)C=C1C
inactive: [10] 97 % of control | dose: 100.0 mg/kg/injection, schedule: Q01DX009 (ip), vehicle: saline 97 % of control | dose: 200.0 mg/kg/injection, schedule: Q01DX009 (ip), vehicle: saline 104 % of control

O=[N+]([O-])c1cccc(-c2cnc(-c3ccccc3)cc2-c2ccccc2O)c1
inactive: [7] 94 % of control | [8] 94 % of control | dose: 400.0 mg/kg/injection, schedule: Q04DX002 (ip), vehicle: saline with Tween-80 102 % of control

CC12OC(c3ccccc3)(C3=C1C1CCC(C1)C3(C)C)c1ccccc12 (stereo not drawn)
inactive: [10] 89 % of control | [11] 103 % of control | [12] 100 % of control | [13] 112 % of control

CC(=O)Nc1ccc(NC(=O)c2ccc([As](O)O)cc2)cc1
inactive: dose: 25.0 mg/kg/injection, schedule: Q01DX001 (ip), vehicle: carboxymethylcellulose (CMC) 100 % of control | dose: 50.0 mg/kg/injection, schedule: Q01DX001 (ip), vehicle: carboxymethylcellulose (CMC) 102 % of control | dose: 100.0 mg/kg/injection, schedule: Q01DX001 (ip), vehicle: carboxymethylcellulose (CMC) 107 % of control | dose: 200.0 mg/kg/injection, schedule: Q01DX001 (ip), vehicle: carboxymethylcellulose (CMC) 113 % of control

C=C1C(=O)OC2C3OC(C)(CCC(O)C3COC(C)=O)CC(OC(=O)/C(=C/C)COC(C)=O)C12 (stereo not drawn)
inactive: dose: 6.25 mg/kg/injection, schedule: Q01DX009 (ip), vehicle: Klucel (hydroxypropylcellulose) (HPC) 100 % of control | dose: 12.5 mg/kg/injection, schedule: Q01DX009 (ip), vehicle: Klucel (hydroxypropylcellulose) (HPC) 97 % of control | dose: 25.0 mg/kg/injection, schedule: Q01DX009 (ip), vehicle: Klucel (hydroxypropylcellulose) (HPC) 103 % of control

Cc1cc(Cl)ccc1NC(=O)C(c1ccccc1)c1ccccc1
inactive: dose: 100.0 mg/kg/injection, schedule: Q01DX009 (ip), vehicle: Klucel (hydroxypropylcellulose) (HPC) 89 % of control | dose: 100.0 mg/kg/injection, schedule: Q04DX003 (ip), vehicle: Klucel (hydroxypropylcellulose) (HPC) 101 % of control | dose: 200.0 mg/kg/injection, schedule: Q01DX009 (ip), vehicle: Klucel (hydroxypropylcellulose) (HPC) 92 % of control | dose: 200.0 mg/kg/injection, schedule: Q04DX003 (ip), vehicle: Klucel (hydroxypropylcellulose) (HPC) 95 % of control | dose: 400.0 mg/kg/injection, schedule: Q01DX009 (ip), vehicle: Klucel (hydroxypropylcellulose) (HPC) 93 % of control | dose: 400.0 mg/kg/injection, schedule: Q04DX003 (ip), vehicle: Klucel (hydroxypropylcellulose) (HPC) 88 % of control

C/C(=N\N1CCCCC1)c1ccc(NC(=O)C(Cl)Cl)cc1
inactive: [6] 106 % of control | [9] 97 % of control | [14] 89 % of control

O=Cc1cccc(Oc2cccc(C=O)c2)c1
inactive: [2] 97 % of control | [3] 95 % of control | [4] 92 % of control

OC1C2CCC(C2)[CH]1[Hg][Cl] (stereo not drawn)
inactive: dose: 15.0 mg/kg/injection, schedule: Q01DX001 (ip), vehicle: carboxymethylcellulose (CMC) 95 % of control

C=CCOC(=O)CCl
inactive: dose: 55.0 mg/kg/injection, schedule: Q01DX Z (ip), vehicle: methylcellulose (MC) 87 % of control | dose: 100.0 mg/kg/injection, schedule: Q01DX001 (ip), vehicle: saline with Tween-80 92 % of control | dose: 200.0 mg/kg/injection, schedule: Q01DX001 (ip), vehicle: saline with Tween-80 98 % of control

COC(=O)CNC(=O)C1NC(C)(C)SC1(C)C (stereo not drawn)
inactive: [11] 97 % of control | [12] 101 % of control | [13] 95 % of control

Cc1ccccc1NC(=O)Oc1ccc2ccccc2c1
inactive: dose: 100.0 mg/kg/injection, schedule: Q04DX002 (ip), vehicle: Klucel (hydroxypropylcellulose) (HPC) 106 % of control | [1] 103 % of control | dose: 400.0 mg/kg/injection, schedule: Q04DX002 (ip), vehicle: Klucel (hydroxypropylcellulose) (HPC) 106 % of control

CCOC(=O)Nc1ccc(OCC)cc1
inactive: dose: 50.0 mg/kg/injection, schedule: Q01DX001 (ip), vehicle: Klucel (hydroxypropylcellulose) (HPC) 98 % of control | [2] 101 % of control | [3] 102 % of control and 106 % of control | [4] 97 % of control and 98 % of control

C=C1CC2(CCC3(CC2)CC(=C)C(=O)O3)OC1=O (stereo not drawn)
inactive: dose: 12.5 mg/kg/injection, schedule: Q04DX003 (ip), vehicle: saline 102 % of control | dose: 25.0 mg/kg/injection, schedule: Q04DX003 (ip), vehicle: saline 116 % of control | dose: 50.0 mg/kg/injection, schedule: Q04DX003 (ip), vehicle: saline 119 % of control

CCCCCCCCN(c1ccc(C(=O)NC(CCC(=O)OCC)C(=O)OCC)cc1)S(=O)(=O)c1ccc(C)cc1 (stereo not drawn)
inactive: dose: 12.5 mg/kg/injection, schedule: Q01DX009 (ip), vehicle: saline with Tween-80 95 % of control | dose: 25.0 mg/kg/injection, schedule: Q01DX009 (ip), vehicle: saline with Tween-80 95 % of control | [5] 95 % of control

C=CS(=O)(=O)CCN(C)C
inactive: dose: 100.0 mg/kg/injection, schedule: Q04DX002 (ip), vehicle: saline 94 % of control | dose: 200.0 mg/kg/injection, schedule: Q04DX002 (ip), vehicle: saline 90 % of control | dose: 400.0 mg/kg/injection, schedule: Q04DX002 (ip), vehicle: saline 94 % of control

OCC1=CCN(CCc2c[nH]c3ccccc23)CC1
inactive: dose: 100.0 mg/kg/injection, schedule: Q04DX003 (ip), vehicle: saline with Tween-80 95 % of control | dose: 200.0 mg/kg/injection, schedule: Q04DX003 (ip), vehicle: saline with Tween-80 88 % of control | dose: 400.0 mg/kg/injection, schedule: Q04DX003 (ip), vehicle: saline with Tween-80 94 % of control

Cc1ccc(COC(=O)Nc2ccc(C)c(NC(=O)OCc3ccc(C)cc3)c2)cc1
inactive: [6] 90 % of control | [14] 90 % of control
